What was measured:
MDA-MB-231 = assay: Growth inhibition of human MDA-MB-231 cells after 72 hrs by luminescence assay; format: functional; conditions: MDA-MB-231, 72 h
[1] = Metabolic stability in human liver microsomes assessed as compound remaining at 1 umol/L after 15 to 30 mins by LC/MS/MS analysis; format: ADME, Microsome; conditions: read-out: Stability
Mus musculus = assay: Upregulation of TNFalpha mRNA level in human MDA-MB-231 cells expressing luciferase xenografted in po dosed mouse after 6 hrs by RT-PCR analysis; format: functional, organism-based
[2] = Metabolic stability in mouse liver microsomes assessed as compound remaining at 1 umol/L after 15 to 30 mins by LC/MS/MS analysis; format: ADME, Microsome; conditions: read-out: Stability

Row | SMILES | GI50 (MDA-MB-231) [nM] | microsomal CLint at 1 µM [1] [µL/min/mg] | Activity (Mus musculus) | microsomal CLint at 1 µM [2] [µL/min/mg]
1 | CN[C@@H](C)C(=O)N[C@H](C(=O)N1C[C@H]2CCCN2C[C@H]1C(=O)N[C@@H]1CCOc2ccccc21)C1CCCCC1 | 5.7 |  |  | 
2 | CN[C@@H](C)C(=O)N[C@H](C(=O)N1C[C@H]2C[C@@H]3C[C@@H]3N2C[C@H]1C(=O)N[C@@H]1CCOc2ccccc21)C1CCCCC1 | 7.8 | 72 | Dose-dependent effect | 96
3 | CN[C@@H](C)C(=O)N[C@H](C(=O)N1C[C@H]2C[C@H]3C[C@H]3N2C[C@H]1C(=O)N[C@@H]1CCOc2ccccc21)C1CCCCC1 | 83 | 39 |  | 45

Reference: ChEMBL document CHEMBL2417358, “Design, stereoselective synthesis, and biological evaluation of novel tri-cyclic compounds as inhibitor of apoptosis proteins (IAP) antagonists” (Bioorg Med Chem, 2013)
